Reference: the NIST ThermoML archive (doi:10.1021/acs.jced.7b00106)
“And” between values parts separate entries of the source, which are not always exact repeats. Identical values can stand only once.

Details: Fluid (supercritical or subcritical phases), Hot wire method

FC(F)(F)/C=C/Cl [(E)-1-chloro-3,3,3-trifluoroprop-1-ene]
Details | thermal conductivity
451.94 K, 2166 kPa | 0.02385 W/m/K
451.94 K, 5208 kPa | 0.04623 W/m/K
451.95 K, 2165 kPa | 0.02394 W/m/K
451.98 K, 987 kPa | 0.02333 W/m/K
451.98 K, 990 kPa | 0.0233 W/m/K
451.98 K, 3273 kPa | 0.02726 W/m/K
451.99 K, 3272 kPa | 0.02725 W/m/K
452.01 K, 1670 kPa | 0.02346 W/m/K
452.01 K, 1671 kPa | 0.0235 W/m/K
452.01 K, 2616 kPa | 0.02474 W/m/K
452.01 K, 2617 kPa | 0.02483 W/m/K
452.03 K, 5206 kPa | 0.0467 W/m/K
452.03 K, 5207 kPa | 0.04676 W/m/K
452.06 K, 2990 kPa | 0.026 W/m/K
452.06 K, 2991 kPa | 0.02595 W/m/K
452.09 K, 2165 kPa | 0.02407 W/m/K and 0.024 W/m/K
452.12 K, 5207 kPa | 0.0469 W/m/K
452.13 K, 5206 kPa | 0.04663 W/m/K
452.14 K, 7293 kPa | 0.04964 W/m/K
452.14 K, 7296 kPa | 0.04969 W/m/K
452.15 K, 987 kPa | 0.02338 W/m/K
452.16 K, 988 kPa | 0.02337 W/m/K
452.16 K, 2617 kPa | 0.02488 W/m/K
452.17 K, 1671 kPa | 0.02356 W/m/K
452.17 K, 2617 kPa | 0.02487 W/m/K
452.19 K, 5579 kPa | 0.04728 W/m/K
452.2 K, 2991 kPa | 0.02606 W/m/K
452.2 K, 5578 kPa | 0.0472 W/m/K
452.21 K, 2990 kPa | 0.026 W/m/K
452.23 K, 5207 kPa | 0.04713 W/m/K
452.24 K, 5208 kPa | 0.0472 W/m/K
452.25 K, 2165 kPa | 0.024 W/m/K
452.29 K, 5577 kPa | 0.04741 W/m/K
452.3 K, 5578 kPa | 0.04745 W/m/K
452.31 K, 7293 kPa | 0.04973 W/m/K
452.32 K, 7296 kPa | 0.0498 W/m/K
452.33 K, 988 kPa | 0.0233 W/m/K
452.33 K, 2615 kPa | 0.02494 W/m/K
452.33 K, 2618 kPa | 0.02493 W/m/K
452.33 K, 6080 kPa | 0.04801 W/m/K
452.33 K, 6081 kPa | 0.04806 W/m/K
452.34 K, 988 kPa | 0.02333 W/m/K
452.34 K, 1671 kPa | 0.02345 W/m/K
452.35 K, 1672 kPa | 0.02348 W/m/K
452.36 K, 22580 kPa | 0.06316 W/m/K
452.41 K, 5578 kPa | 0.04763 W/m/K
452.42 K, 2166 kPa | 0.02413 W/m/K
452.42 K, 2167 kPa | 0.02408 W/m/K
452.42 K, 5577 kPa | 0.04756 W/m/K
452.43 K, 12588 kPa | 0.05554 W/m/K
452.43 K, 12589 kPa | 0.05558 W/m/K
452.46 K, 18530 kPa | 0.06032 W/m/K
452.46 K, 18535 kPa | 0.06035 W/m/K
452.48 K, 7729 kPa | 0.0503 W/m/K
452.48 K, 7733 kPa | 0.05033 W/m/K
452.49 K, 10507 kPa | 0.05349 W/m/K
452.5 K, 7296 kPa | 0.04992 W/m/K
452.5 K, 7299 kPa | 0.04984 W/m/K
452.51 K, 6079 kPa | 0.04861 W/m/K
452.51 K, 6081 kPa | 0.04828 W/m/K
452.51 K, 15249 kPa | 0.05785 W/m/K
452.52 K, 10513 kPa | 0.05353 W/m/K
452.52 K, 15256 kPa | 0.05787 W/m/K
452.52 K, 22575 kPa | 0.06312 W/m/K
452.52 K, 22580 kPa | 0.06313 W/m/K
452.53 K, 989 kPa | 0.02342 W/m/K
452.53 K, 5576 kPa | 0.04776 W/m/K
452.53 K, 5577 kPa | 0.0478 W/m/K
452.53 K, 6779 kPa | 0.0491 W/m/K
452.53 K, 6780 kPa | 0.0491 W/m/K
452.54 K, 985 kPa | 0.02339 W/m/K
452.54 K, 1671 kPa | 0.02355 W/m/K
452.54 K, 1672 kPa | 0.02352 W/m/K
452.58 K, 8954 kPa | 0.0518 W/m/K
452.58 K, 8958 kPa | 0.05186 W/m/K
452.61 K, 12577 kPa | 0.05553 W/m/K
452.61 K, 12585 kPa | 0.05555 W/m/K
452.61 K, 18524 kPa | 0.06031 W/m/K
452.63 K, 18535 kPa | 0.06055 W/m/K
452.65 K, 5576 kPa | 0.04794 W/m/K
452.65 K, 5578 kPa | 0.04801 W/m/K
452.67 K, 7732 kPa | 0.0504 W/m/K
452.67 K, 7733 kPa | 0.05035 W/m/K
452.68 K, 10507 kPa | 0.05353 W/m/K
452.68 K, 10512 kPa | 0.05353 W/m/K
452.69 K, 6081 kPa | 0.04841 W/m/K
452.69 K, 7300 kPa | 0.05001 W/m/K
452.69 K, 7301 kPa | 0.04996 W/m/K
452.69 K, 15244 kPa | 0.05785 W/m/K
452.69 K, 22569 kPa | 0.06311 W/m/K
452.69 K, 22574 kPa | 0.06307 W/m/K
452.7 K, 6080 kPa | 0.04844 W/m/K
452.71 K, 6780 kPa | 0.04921 W/m/K
452.72 K, 6782 kPa | 0.04926 W/m/K
452.75 K, 990 kPa | 0.02344 W/m/K
452.76 K, 988 kPa | 0.02344 W/m/K
452.77 K, 8956 kPa | 0.05187 W/m/K and 0.05189 W/m/K
452.79 K, 18524 kPa | 0.0603 W/m/K
452.79 K, 18533 kPa | 0.06034 W/m/K
452.8 K, 12582 kPa | 0.05559 W/m/K
452.86 K, 7730 kPa | 0.05046 W/m/K
452.86 K, 7733 kPa | 0.05047 W/m/K
452.87 K, 10511 kPa | 0.05358 W/m/K
452.87 K, 22562 kPa | 0.06294 W/m/K
452.88 K, 10507 kPa | 0.05361 W/m/K
452.88 K, 15241 kPa | 0.05786 W/m/K
452.88 K, 15242 kPa | 0.05782 W/m/K
452.88 K, 22559 kPa | 0.06307 W/m/K
452.89 K, 6080 kPa | 0.04865 W/m/K
452.89 K, 6081 kPa | 0.04866 W/m/K
452.9 K, 7299 kPa | 0.0501 W/m/K
452.9 K, 7305 kPa | 0.05013 W/m/K
452.91 K, 6780 kPa | 0.04939 W/m/K
452.91 K, 6781 kPa | 0.04936 W/m/K
452.96 K, 8959 kPa | 0.05193 W/m/K
452.97 K, 8955 kPa | 0.0519 W/m/K
452.98 K, 18519 kPa | 0.06033 W/m/K
452.99 K, 12573 kPa | 0.05553 W/m/K
452.99 K, 12587 kPa | 0.05557 W/m/K
453.06 K, 7731 kPa | 0.05059 W/m/K
453.06 K, 22554 kPa | 0.06303 W/m/K
453.06 K, 22568 kPa | 0.06306 W/m/K
453.07 K, 7733 kPa | 0.05056 W/m/K
453.07 K, 10506 kPa | 0.05359 W/m/K
453.07 K, 15242 kPa | 0.05784 W/m/K
453.08 K, 10511 kPa | 0.05377 W/m/K
453.08 K, 15250 kPa | 0.05787 W/m/K
453.1 K, 6079 kPa | 0.04859 W/m/K
453.12 K, 6779 kPa | 0.0495 W/m/K
453.12 K, 6780 kPa | 0.04953 W/m/K
453.17 K, 18517 kPa | 0.06031 W/m/K
453.17 K, 18518 kPa | 0.06033 W/m/K
453.18 K, 8956 kPa | 0.05196 W/m/K
453.18 K, 8959 kPa | 0.05204 W/m/K
453.2 K, 12578 kPa | 0.05564 W/m/K
453.2 K, 12584 kPa | 0.05564 W/m/K
453.27 K, 7731 kPa | 0.05062 W/m/K
453.27 K, 10508 kPa | 0.05365 W/m/K
453.28 K, 7728 kPa | 0.05065 W/m/K
453.28 K, 10506 kPa | 0.05366 W/m/K
453.28 K, 15236 kPa | 0.05778 W/m/K
453.28 K, 15246 kPa | 0.05788 W/m/K
453.33 K, 6776 kPa | 0.0497 W/m/K
453.33 K, 6780 kPa | 0.04971 W/m/K
453.39 K, 8959 kPa | 0.05209 W/m/K
